Test results as given in patent US5707966A, “Antithrombotic agents” (Eli Lilly and Company, priority 1995, dated 1998).
Counter-ions that a name gives are not always drawn. Like-named read-outs stand apart in the source and are kept apart here.

What was measured:
Type in all cases: biochemical
[1] = target: Human Thrombin (Homo sapiens, UniProt P00734); test: Inhibition of amidase activity of thrombin (Kass)
[2] = system: Human plasma; test: Human plasma anticoagulation, thrombin time (TT); conditions: concentration required to double the thrombin time, linear extrapolation
Procedure: (§1) Dog plasma and rat plasma is obtained from conscious mixed-breed hounds (either sex, Hazelton-LRE, Kalamazoo, Mich., U.S.A.) or from anesthetized male Sprague-Dawley rats (Harlan Sprague-Dawley, Inc., Indianapolis, Ind., U.S.A.) by venipuncture into 3.8 percent citrate. Fibrinogen is prepared from in-date ACD human blood as the fraction I-2 according to previous procedures and specifications. […] Human fibrinogen is also purchased as 98 percent pure/plasmin free from American Diagnostica, Greenwich, Conn. Coagulation reagents ACTIN, Thromboplastin, and Human plasma are from Baxter Healthcare Corp., Dade Division, Miami, Fla. Bovine thrombin from Parke-Davis ([…], Mich.) is used for coagulation assays in plasma.
(§2) Coagulation assay procedures are as previously described. […] A CoAScreener coagulation instrument (American LABor, Inc.) is used for all coagulation assay measurements. The prothrombin time (PT) is measured by adding 0.05 mL saline and 0.05 mL Thromboplastin-C reagent to 0.05 mL test plasma. The activated partial thromboplastin time (APTT) is measured by incubation of 0.05 mL test plasma with 0.05 mL Actin reagent for 120 seconds followed by 0.05 mL CaCl2 (0.02M). The thrombin time (TT) is measured by adding 0.05 mL saline and 0.05 mL thrombin (10 NIH units/mL) to 0.05 mL test plasma. The compounds of Formula I are added to human or animal plasma over a wide range of concentrations to determine prolongation effects on the APTT, PT, and TT assays. Linear extrapolations are performed to estimate the concentrations required to double the clotting time for each assay.

[3] = target: T1, Bovine trypsin (Bos taurus, UniProt P00760); test: Kass with trypsin, chromogenic substrate; conditions: substrate N-Benzoyl-Phe-Val-Arg-p-nitroanilide
T1 construct: Bovine trypsin is purchased; purchased Worthington Biochemicals, Freehold, N.J
T1 sequence (P00760 24-246): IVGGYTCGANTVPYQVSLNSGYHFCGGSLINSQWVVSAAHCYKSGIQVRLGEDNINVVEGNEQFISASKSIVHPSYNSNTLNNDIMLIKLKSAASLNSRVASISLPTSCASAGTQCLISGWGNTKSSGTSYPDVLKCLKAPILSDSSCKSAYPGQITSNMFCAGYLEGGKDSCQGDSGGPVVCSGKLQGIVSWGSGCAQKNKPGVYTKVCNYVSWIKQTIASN
Procedure: By substantially following the procedures described above for human thrombin, and using other human blood coagulation system serine proteases and proteases of the fibrinolytic system with the appropriate chromogenic substrates, identified below, selectivity of the compounds of the present invention with respect to the coagulation factor serine proteases and with respect to the fibrinolytic system serine proteases are evaluated as well as their substantial lack of interference with serine proteases of the fibrinolytic system. Thrombin inhibitors preferably should spare fibrinolysis induced by urokinase, tissue plasminogen activator (t-PA) and streptokinase. This would be important to the therapeutic use of such agents as an adjunct to streptokinase, t-PA or urokinase thrombolytic therapy and to the use of such agents as an endogenous fibrinolysis-sparing (with respect to t-PA and urokinase) antithrombotic agent. In addition to the lack of interference with the amidase activity of the fibrinolytic proteases, such fibrinolytic system sparing can be studied by the use of human plasma clots and their lysis by the respective fibrinolytic plasminogen activators.
Human factors X, Xa, IXa, XIa, and XIIa are purchased from Enzyme Research Laboratories, South Bend, Ind.; human urokinase from Leo Pharmaceuticals, Denmark; and recombinant activated Protein C (aPC) is prepared at Eli Lilly and Co. substantially according to U.S. Patent No. 4,981,952. Chromogenic substrates: N-Benzoyl-Ile-Glu-Gly-Arg-p-nitroanilide (for factor Xa); N-Cbz-D-Arg-Gly-Arg-p-nitroanilide (for factor IXa assay as the factor Xa substrate); Pyroglutamyl-Pro-Arg-p-nitroanilide (for Factor XIa and for aPC); H-D-Pro-Phe-Arg-p-nitroanilide (for factor XIIa); and Pyroglutamyl-Gly-Arg-p-nitroanilide (for urokinase); are purchased from KabiVitrum, Stockholm, Sweden, or from Midwest Biotech, Fishers, Ind. Bovine trypsin is purchased from Worthington Biochemicals, Freehold, N.J., and human plasma kallikrein from Kabi Vitrum, Stockholm, Sweden. Chromogenic substrate H-D-Pro-Phe-Arg-p-nitroanilide for plasma kallikrein is purchased from Kabi Vitrum, Stockholm, Sweden. N-Benzoyl-Phe-Val-Arg-p-nitroanilide, the substrate for human thrombin and for trypsin, is synthesized according to procedures described above for the compounds of the present invention, using known methods of peptide coupling from commercially available reactants or purchased from Midwest Biotech, Fishers, Ind.

[4] = system: Human plasma; test: Human plasma anticoagulation, activated partial thromboplastin time (APTT); conditions: concentration required to double the APTT, linear extrapolation
Procedure: as §1, §2

[5] = system: Human plasma; test: Human plasma anticoagulation, prothrombin time (PT); conditions: concentration required to double the PT, linear extrapolation
Procedure: as §1, §2

[6] = mean over a range of concentrations, […]

## Nc1ccc(CNC(=O)[C@@H]2CCCN2C(=O)[C@@H](CC2CCCCC2)NCC(=O)O)cc1 [Example 62, HO2 CCH2 -D-Cha-Pro-4-NHCH2 C6 H4 NH2.HCl]
[1]; [6]
  Kass Human Thrombin: 7.6 × 10^6 (L/mole)
[2]
  Human Plasma Anticoagulation 2× Clotting time TT: 54 ng/mL

## Nc1ccc(CCNC(=O)[C@@H]2CCCN2C(=O)[C@@H](CC2CCCCC2)NCC(=O)O)cc1 [Example 63, HO2 CCH2 -D-Cha-Pro-4-NHCH2 CH2 C6 H4 NH2.HCl]
[1]; [6]
  Kass Human Thrombin: 0.31 × 10^6 (L/mole)
[2]
  Human Plasma Anticoagulation 2× Clotting time TT: 680 ng/mL

## Cl.N=C(N)c1cc(CNC(=O)[C@@H]2CCCN2C(=O)[C@@H](CC2CCCCC2)NCC(=O)O)cs1 [Example 65, HO2 CCH2 -D-Cha-pro-4-NHCH2-2-amidinothiophene.HCl]
[3]
  Kass Trypsin: 570 × 10^6 (L/mole)
[1]; [6]
  Kass Human Thrombin: 4,500 × 10^6 (L/mole)
[4]
  Human Plasma Anticoagulation 2× Clotting time APTT: 48 ng/mL
[2]
  Human Plasma Anticoagulation 2× Clotting time TT: 1 ng/mL

## N=C(N)C1CCC(CNC(=O)[C@@H]2CCCN2C(=O)[C@@H](CC2CCCCC2)NCC(=O)O)NC1 (stereo partly drawn) [Example 67, HO2 CCH2 -D-Cha-pro-2-NHCH2-5-amidinopiperidine.HCl]
[5]
  Human Plasma Anticoagulation 2× Clotting time PT: 1,300 ng/mL
[1]
  Kass Human Thrombin: 11
[4]
  Human Plasma Anticoagulation 2× Clotting time APTT: 1,800 ng/mL
[2]
  Human Plasma Anticoagulation 2× Clotting time TT: 34 ng/mL

## N=C(N)C1=CNC(CNC(=O)[C@@H]2CCCN2C(=O)[C@@H](CC2CCCCC2)NCC(=O)O)CC1 (stereo partly drawn) [Example 68, HO2 CCH2 -D-Cha-Pro-2-NHCH2 -5-amidino-5,6-dehydro-piperidine.HCl]
[5]
  Human Plasma Anticoagulation 2× Clotting time PT: 190 ng/mL
[1]; [6]
  Kass Human Thrombin: 600 × 10^6 (L/mole)
[4]
  Human Plasma Anticoagulation 2× Clotting time APTT: 49 ng/mL
[2]
  Human Plasma Anticoagulation 2× Clotting time TT: 4 ng/mL

## Nc1cc(CNC(=O)[C@@H]2CCCN2C(=O)[C@@H](CC2CCCCC2)NCC(=O)O)ccn1 [Example 73, HO2 CCH2 -D-Cha-Pro-4-NHCH2 -2-aminopyridine.HCl]
[5]
  Human Plasma Anticoagulation 2× Clotting time PT: 330 ng/mL
[1]; [6]
  Kass Human Thrombin: 28 × 10^6 (L/mole)
[4]
  Human Plasma Anticoagulation 2× Clotting time APTT: 340 ng/mL
[2]
  Human Plasma Anticoagulation 2× Clotting time TT: 21 ng/mL

## Nc1ccc(CNC(=O)[C@@H]2CCCN2C(=O)[C@@H](CC2CCCCC2)NCC(=O)O)cn1 [Example 74, HO2 CCH2 -D-Cha-Pro-5-NHCH2 -2-aminopyridine.HCl]
[5]
  Human Plasma Anticoagulation 2× Clotting time PT: 350 ng/mL
[1]; [6]
  Kass Human Thrombin: 29 × 10^6 (L/mole)
[4]
  Human Plasma Anticoagulation 2× Clotting time APTT: 420 ng/mL
[2]
  Human Plasma Anticoagulation 2× Clotting time TT: 20 ng/mL

## Nc1ccc(CCNC(=O)[C@@H]2CCCN2C(=O)[C@@H](CC2CCCCC2)NCC(=O)O)cn1 [Example 75, HO2 CCH2 -D-Cha-Pro-5-NHCH2 CH2 -2-aminopyridine.HCl]
[1]; [6]
  Kass Human Thrombin: 0.45 × 10^6 (L/mole)

## Nc1ccc(CNC(=O)[C@@H]2CCCN2C(=O)[C@@H](CC2CCCCC2)NCC(=O)O)cc1F [Example 77, HO2 CCH2 -D-Cha-Pro-4-NHCH2 -2-F-aniline.HCl]
[5]
  Human Plasma Anticoagulation 2× Clotting time PT: 890 ng/mL
[1]
  Kass Human Thrombin: 11
[4]
  Human Plasma Anticoagulation 2× Clotting time APTT: 1,600 ng/mL
[2]
  Human Plasma Anticoagulation 2× Clotting time TT: 53 ng/mL

## CCS(=O)(=O)N[C@H](CC1CCCCC1)C(=O)N1CCC[C@H]1C(=O)NCc1ccc(N)cc1F [Example 82, EtSO2 -D-Cha-Pro-4-NHCH2 -3-F-C6 H3 NH2.HCl]
[5]
  Human Plasma Anticoagulation 2× Clotting time PT: 3,000 ng/mL
[1]; [6]
  Kass Human Thrombin: 5.0 × 10^6 (L/mole)
[4]
  Human Plasma Anticoagulation 2× Clotting time APTT: 3,800 ng/mL
[2]
  Human Plasma Anticoagulation 2× Clotting time TT: 130 ng/mL
